Data set [1] can be described thus: Hydrolysis of the acylating reagent at physiological pH, measured by NMR. It counts as physicochemical. The protocol: We activated a set of eight dicarboxylic acids with diverse linker lengths and chemical properties (FIG. 1e). The efficiency of crosslinking RNA 1 was measured by polyacrylamide electrophoresis (FIG. 1e). […] This can be potentially explained by the inductive effect of the beta oxygen that substantially increases the reactivity of the activated ester, making it more susceptible to hydrolysis.
(§1) a, Minimal and maximal possible lengths between the crosslinked 2′ oxygen groups in RNA, estimated in PyMOL. Hydroxyl groups are represented by the green oxygen atoms. […] The three lanes represent triplicate experiments. c, Reaction scheme of hydrolysis reaction of DPI. d, Hydrolysis of DPI in phosphate buffer pH 7.4 analyzed by NMR spectroscopy over time. e, Formation of hydrolyzed DPI products over time. After ˜30 min all DPI has been hydrolyzed. f, Hydrolysis of ApA in 100 mM borate buffer pH 10.0 analyzed by NMR spectroscopy over time. g, Formation of hydrolyzed ApA products over time, based on quantification of panel f. […] The three lanes represent triplicate experiments. i, An increase in crosslink reversal (=decrease in crosslinked RNA) is observed at increased pH and temperature, based on quantification of gel pictures in panel h. […]

The subject of the next data set is HEK293 cells. The data set is described as follows: In-cell SHARC crosslinking, recovery of crosslinked RNA fragments from DD2D gel. Conditions: HEK293 cells, 5, 12.5, or 25 mM DPI, RNase III fragmentation. It counts as cell-based, human. The protocol: SHARC-exo accurately measures static and dynamic spatial distances in RNA in cells. To test SHARC-exo, we first crosslinked HEK293 cells with DPI, fragmented RNA with RNase III, and isolated the crosslinked fragments using the DD2D gel method. We recovered 1-2% RNA fragments as crosslinked using 5, 12.5, or 25 mM DPI. We sequenced the SHARC-exo libraries and observed 3.3-14.5% of the reads are gapped, similar to PARIS. Crosslinked reads are highly reproducible at different DPI concentrations.
In vivo crosslinking. Hela and HEK293T cells with 80% confluency in a 10 cm dish were washed twice with 1× phosphate-buffered saline (PBS). […]
a, RNase R reduces arm length in PARIS-exo. b, RNase R trimming leads to enrichment of U at the 5th nucleotide from the 3′ end. c-e, An example of precise crosslink site identification using PARIS-exo. c, vertical lines indicate the 3′ ends (median) from PARIS and PARIS-exo reads. d, The PARIS-exo derived 3′ ends and crosslinking sites are mapped to the H79 and ES31 of human 28S secondary structure. e, cryo-EM structure of H79 and ES31 (PDB: 4V6X). f, HEK293 cells are crosslinked with DPI at different concentrations. […] The smear above the diagonal represents crosslinked RNA. h, Quantification of the recovery of crosslinked RNA fragments from the DD2D gel system (replicates n=9, 16 and 4 for the 3 conditions, respectively). […]

Data set [2] in a line: Hydrolysis in borate buffer/DMSO at pH 10.0, monitored by 1H NMR. It counts as physicochemical.
Excerpt: Reversing 2′-hydroxyl crosslinking under mild alkaline conditions without RNA damage. Reversal of the crosslinks is necessary for subsequent sequence analysis. We hypothesized that the lower stability of the 2′-acylation products relative to the phosphodiester bonds could allow selective crosslink reversal without causing RNA chain breaks. To test this, we first analyzed the rate of phosphodiester cleavage in a model RNA dinucleotide ApA (FIG. 1f). We compared it to the methyl ester of dipicolinic acid 2 (FIG. 1g), a simple ester derivative of the SHARC reagent DPI. The two compounds were incubated in a 3:1 mixture of 100 mM borate buffer and DMSO at pH 10.0, and the stability was monitored over time by ^1H NMR (FIG. 1h). […] In contrast, compound 2 was fully hydrolyzed after ˜120 min, with a rate constant of 3.5*10^−4 (FIG. 1g). From this we concluded that the ˜1000-fold difference in rate constant should provide sufficient opportunity to selectively reverse the crosslinks under mild alkaline conditions without RNA damage.
as §1

Another data set deals with model RNA 1. The data set is described as follows: In vitro crosslinking of model RNA 1 duplex, measured by polyacrylamide electrophoresis. It counts as biochemical. The note with it: 100 mM activated dicarboxylic acid, 10 μM model RNA 1, MOPS pH 7.5, 4 h at room temperature, PAGE. The protocol: All experiments were performed in triplicate.
Source data are provided as a Source Data file.

The mark [3] stands for this setting: 3:1 100 mM borate buffer/DMSO, pH 10.0, 5 mM starting concentration.

Structures are written as SMILES.

Consider `O=C(c1cccc(C(=O)n2ccnc2)n1)n1ccnc1` [DPI, dipicolinic acid imidazolide], for which the “time after which all DPI has been hydrolyzed” value in data set [1] (phosphate buffer pH 7.4, NMR) was roughly 30 min. The “time after which 50% was hydrolyzed” value in data set [1] (physiological pH 7.4, room temperature, NMR) amounted to 5 min. Also, in the data set with HEK293 cells, the “RNA fragments recovered as crosslinked” value is 1-2%.

Regarding `COC(=O)c1cccc(C(=O)OC)n1` [compound 2, methyl ester of dipicolinic acid], in data set [2] (setting [3]), the “rate constant of hydrolysis” value was 3.5*10^−4 and the “time to full hydrolysis” value is roughly 120 min. Also, the “difference in rate constant, compound 2 vs ApA” value in data set [2] (pH 10.0) is recorded as roughly 1000 fold.

On to `O=C(CCCC(=O)n1ccnc1)n1ccnc1` [Activated glutaric acid], for which the “crosslinking efficiency of RNA 1” value in the data set with model RNA 1 amounted to 94%.

In the case of `O=C(COCC(=O)n1ccnc1)n1ccnc1` [Activated diglycolic acid], the “crosslinking efficiency of RNA 1” value in the data set with model RNA 1 was found to be 27%.

The values above are taken from patent US20240166683A1, “CHEMICAL TOOLS FOR RNA 3D STRUCTURE DETERMINATION IN VIVO” (UNIVERSITY OF SOUTHERN CALIFORNIA, priority 2022, published 2024).
